This note sets out measurements from US12433954B2, “Methods of activating anti-CD19 chimeric antigen receptor (CAR) T cells using amphiphilic ligand conjugates comprising CAR-targeting protein sequence motifs” (Massachusetts Institute of Technology, priority 2020, dated 2025).

Bridge positions count the residues as written; N and C are the ends. Ends that are not written are not given here. Peptide text beside a SMILES is read from it. * marks the point of attachment. Biotin = O=C1N[C@H]2[C@H](CS[C@H]2CCCCC(=O)*)N1

In one data set the test system is FMC63 IgG antibody. Briefly: Alanine scanning mutagenesis, flow cytometry binding to FMC63 IgG. Also on record: species or system mouse. The following applies: yeast stained with 5 μM FMC63 IgG antibody. The method, then:
FIG. 11 provides a graph showing flow cytometry analysis of alanine scanning mutagenesis for […] (SEQ ID NO: 16) where each amino acid position was mutated to an alanine, or additional alanine residues (one or two) were added. Flow cytometry analysis was performed to evaluate binding to the FMC63 IgG antibody.
To determine the effect of amino acid position on binding to FMC63, an alanine mutagenesis experiment was performed were each amino acid was mutated to alanine and binding to FMC63 was assessed. Specifically, a representative mimotope, […] (SEQ ID NO: 16), was mutated at each amino acid position to generate an alanine (SEQ ID NOs: 54-63) (Table 7). To assess the tolerance of additional alanine residues, one alanine or two alanine residues were inserted between the two cysteine residues (SEQ ID NOs: 52 and 53) to determine the impact the loop structure had on mimotope binding to FMC63. To generate mutations, two complementary oligos with the codon replaced at the desired site were denatured at 95° C. and annealed by slow cooling to 25° C. (decreasing by 0.5° C./second). The annealed oligos were treated with T4 PNK (T4 Polynucleotide Kinase) to add a terminal phosphate, and then ligated into digested pCT-CON2 vector. Positive clones having the correct oligo inserted were tested and transformed into competent EBY100 yeast cells. […]
Background: In flow cytometry, cells or beads pass a laser one at a time.

Data set [1] is described as follows: Micelle stability of lipid-oligonucleotide conjugates in presence of serum. The format is physicochemical. The following applies: for percentage of intact micelles: micelles formed in aqueous solution, in the presence of serum (FBS); for micelle stability on increasing number of guanines: in the presence of serum, compared with lipo-G6T4-CG. The method, then: For example, in certain embodiments, a plurality of lipid conjugates is allowed to spontaneously form micelles in aqueous solution. The micelles are incubated with albumin, or a solution including albumin such as Fetal Bovine Serum (FBS). Samples can be analyzed, for example, by ELISA, size exclusion chromatography or other methods to determine if binding has occurred. Lipid conjugates can be selected as lymph node-targeting conjugates if in the presence of albumin, or a solution including albumin such as Fetal Bovine Serum (FBS), the micelles dissociate and the lipid conjugates bind to albumin as discussed above.
In certain embodiments, the linker is one or more guanines, for example between 1-10 guanines. It has been discovered that altering the number of guanines between a cargo such as a CpG oligonucleotide, and a lipid tail controls micelle stability in the presence of serum proteins. Therefore, the number of guanines in the linker can be selected based on the desired affinity of the conjugate for serum proteins such as albumin. When the cargo is a CpG immunostimulatory oligonucleotide and the lipid tail is a diacyl lipid, the number of guanines affects the ability of micelles formed in aqueous solution to dissociate in the presence of serum: 20% of the non-stabilized micelles (lipo-G0T10-CG) (SEQ ID NO: 138) were intact, while the remaining 80% were disrupted and bonded with FBS components.

In a further data set the test system is FMC63 scFv. Put plainly: Dissociation kinetics of FMC63 scFv from yeast clones (flow cytometry). It is filed as binding, mouse. The note with it: yeast clones labeled, washed, incubated 0-72 hours. The method, then:
The yeast clones were labeled with the scFv, washed, and incubated for 0-72 hours as indicated prior to analysis.
The dissociation kinetics following binding of the mimotopes to FMC63 were also investigated. […] The yeast were then washed, and incubated for 0-72 hours prior to analysis of the degree of FMC63 scFv labeling by flow cytometry.

A further data set concerns FMC63 CAR T cells. Briefly: In vivo CAR T cell proliferation in lymph nodes after amph-mimotope vaccination (cell trace violet dilution). Also on record: species or system mice. The note with it: inguinal LNs 48 hours post-vaccination; s.c. tail base with 25 μg cyclic-di-GMP; 10 ug monovalent or 20 ug bivalent. The method, then:
FIG. 18A depicts a timeline for administration of CD45.1+ donor FMC63 CAR T cells to CD45.2+ recipient mice on Day 0, followed by administration of amph-mimotope or bivalent amph-mimotope on Day 1, and analysis of CAR T cell proliferation in lymph nodes harvested on Day 3 measured by cell trace violet dilution.
FIG. 18B provides histograms measuring the proliferation of FMC63 CAR T cells isolated from mice on Day 3 as depicted in FIG. 18A. The mice were administered amph-mimotope containing a mimotope with the sequence set forth in SEQ ID NO: 128 or 129 (Amph-K-A1 or Amph-K-C2 respectively) or the bivalent mimotopes depicted in FIG. 17C (amph-bi-F12-peg8 or amph-bi-F12-peg4). Control mice were administered no amph-mimotope.
CD45.1^+ donor FMC63 CAR T cells were prepared as described in Example 3 and labeled with cell trace violet according to manufacturer's protocol. 2×10^6 CAR T cells were administered into CD45.2^+ recipient mice via tail vein injection on Day 0. The following day, recipient mice were vaccinated by subcutaneous injection at the tail base with the following vaccine formulation: • (i) 10 ug of monovalent amph-mimotope (Amph-K-A1 or Amph-K-C2)+25 μg of cyclic-di-GMP in 1×PBS; or • (ii) 20 ug of amph-Bi-F12-mimotope (PEG4 or PEG8)+25 μg of cyclic-di-GMP in 1×PBS. […]

In the next data set the test system is FMC63. Put plainly: FMC63 binding of mimotope-expressing yeast after DTT treatment (flow cytometry). Set-up: species or system mouse. The note with it: DTT 0.01-10 mM, 30 minutes, room temperature; yeast-displayed. On the procedure: To determine the formation of an intra-peptidyl disulfide bridge formed by the two Cys residues, mimotope expressing yeast were treated in reducing conditions and binding of the mimotope to FMC63 IgG was measured. […] Similarly, control cells expressing Aga2p (connected to the yeast surface by disulfide bridge) were treated with DTT. Following treatment, cells were labelled with biotinylated Aga2p or FMC63 and binding was measured by flow cytometry. At mild reducing conditions, Aga2p was maintained on the yeast surface while mimotope binding to FMC63 was abolished (FIG. 6). The inhibition of mimotope binding to FMC63 following treatment with a reducing agent reaffirms the formation of the disulfide bond and its importance for binding.
Sequence of FMC63 (as listed by the source): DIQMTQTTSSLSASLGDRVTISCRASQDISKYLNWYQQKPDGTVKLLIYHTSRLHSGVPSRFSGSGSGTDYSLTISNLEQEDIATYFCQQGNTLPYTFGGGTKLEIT
Sequence of FMC63 (as listed by the source): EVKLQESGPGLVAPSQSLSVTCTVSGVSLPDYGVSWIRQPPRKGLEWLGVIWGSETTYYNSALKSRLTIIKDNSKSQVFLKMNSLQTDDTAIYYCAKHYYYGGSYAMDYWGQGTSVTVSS

The test system of data set [2] is FMC63 anti-hCD19 CAR-T cells. Briefly: IFNγ secretion of CAR-T cells co-cultured with amph-mimotope coated K562 cells (ELISA). The format is cell-based. The following applies: K562 coated with 10 μM amph-mimotope, E:T 10:1, 24 hours; compared to amphiphile only control. The method, then:
ID NO: 5) at 10 μM and incubated at 37° C. for 30 minutes. The labeling reaction was stopped by pelleting cells and washing with PBS. To mimic antigen presenting cells in lymph nodes, K562 cells were decorated with amph-mimotope, and then co-cultured at an effector to target (E:T) ratio of 10:1 with FMC63 expressing CAR-T cells (hCD19-CAR; SEQ ID NO: 78) for 24 hours. The hCD19-CAR was generated in part from a previously reported CAR (Pegram, H., et al. (2012) Blood 119:18 (4133-4141) and is composed of a human CD8 signal peptide (SEQ ID NO: 87), FMC63 scFV (SEQ ID NO: 70), murine CD8 hinge (SEQ ID NO: 74), a murine CD8 transmembrane domain (SEQ ID NO: 75), a murine CD28 costimulatory domain (SEQ ID NO: 76) and a murine CD3ζ intracellular domain (SEQ ID NO: 77). The overall CAR is provided in SEQ ID NO: 78. After co-culture, cells were pelleted at 2,000×g for 5 minutes, and the supernatant was harvested for IFNγ ELISA and processed following the manufacturer's protocol (Human IFNγ ELISA MAXTM Deluxe (Biolegend)).
Background: An ELISA detects its analyte on a solid surface through an enzyme-linked reagent.

In a further data set the target is FMC63 IgG. Briefly: ELISA of N-terminally biotinylated F12 variants on streptavidin plate, binding to FMC63 IgG. Also on record: species or system mouse. The following applies: read-out: Kd (nM), FMC63 binding affinity of F12 variants with N-terminal flanking residues.

Sequence of FMC63 scFv (as listed by the source): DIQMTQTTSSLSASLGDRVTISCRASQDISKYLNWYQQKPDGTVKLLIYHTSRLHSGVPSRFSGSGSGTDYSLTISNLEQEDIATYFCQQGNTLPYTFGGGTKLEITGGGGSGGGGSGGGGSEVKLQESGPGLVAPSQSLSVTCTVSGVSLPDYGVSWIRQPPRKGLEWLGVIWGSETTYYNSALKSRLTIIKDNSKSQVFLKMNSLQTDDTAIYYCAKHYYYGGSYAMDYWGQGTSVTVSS

Consider “RLCPWSACREL (Synthetic FMC63 Mimotope Mutant) [SEQ ID NO: 53]”, for which the “mimotope binding to FMC63 of RLCPWSCREL variants” value with FMC63 IgG antibody is “abolished”. As for “lipo-G4T6-CG (DNA GGGGTTTTTTCG; DNA, backbone and methylation of C not given here; lipid conjugate)”, the “percentage of intact micelles” value in data set [1] is on record as 73%. Consider “K-A1 (PRKHSGRICPWNCKELDNPPFIFGNR; Synthetic FMC63 mimotope (A1))”, for which, in the data set on FMC63 scFv, the “time for which FMC63 scFv labeling is retained after wash” value is at least 72 h. Consider “Amph-K-C2 (GGGSASRICPWNCKELPSPPRIFGNR; cysteine pairing not given here; also: amphiphile lipid conjugate, site not given here)”, for which, in the data set on FMC63 CAR T cells, the “proliferation of CAR T cells in vivo (cell violet dilution)” value was “observed”. For “lipo-G8T2-CG (DNA GGGGGGGGTTCG; DNA, backbone and methylation of C not given here; lipid conjugate)”, the “micelle stability on increasing number of guanines” value in data set [1] was “did not further enhance micelle stability”. For the compound RHCPWNCSLL [Clone A1], in the data set on FMC63, the “mimotope binding to FMC63 after DTT” value is “abolished”.

“lipo-G0T10-CG (DNA TTTTTTTTTTCG; DNA, backbone and methylation of C not given here; lipid conjugate)”: the “percentage of intact micelles” value in data set [1] was found to be 20%.

Turning to “RLCPWSAACREL (Synthetic FMC63 Mimotope Mutant) [SEQ ID NO: 52]”, the “mimotope binding to FMC63 of RLCPWSCREL variants” value in the data set with FMC63 IgG antibody is reported as “abolished”. As to “lipo-G10T0-CG (DNA GGGGGGGGGGCG; DNA, backbone and methylation of C not given here; lipid conjugate)”, the “micelle stability on increasing number of guanines” value in data set [1] is given as “did not further enhance micelle stability”.

For “amph-mimotope (RHCPWNCSLL; SEQ ID NO: 5) (cysteine pairing not given here; also: amphiphilic lipid tail conjugated, site not given here)”, the “CAR-T cell activation measured by IFNγ secretion” value in data set [2] is “significantly activated”. On to “lipo-G6T4-CG (DNA GGGGGGTTTTCG; DNA, backbone and methylation of C not given here; lipid conjugate)”, for which the “percentage of intact micelles” value in data set [1] is reported as 90%. Broadly, the Kd is a measure of binding affinity in units of concentration. As to `CC[C@H](C)[C@H](NC(=O)[C@H](CCCNC(=N)N)NC(=O)[C@H](CO)NC(=O)[C@H](C)NC(=O)[C@H](CO)NC(=O)CNC(=O)CNC(=O)CNC(=O)CCCC[C@@H]1SC[C@@H]2NC(=O)N[C@@H]21)C(=O)N[C@H]1CSSC[C@@H](C(=O)N[C@@H](CCCCN)C(=O)N[C@@H](CCC(=O)O)C(=O)N[C@@H](CC(C)C)C(=O)O)NC(=O)[C@H](CC(N)=O)NC(=O)[C@H](Cc2c[nH]c3ccccc23)NC(=O)[C@@H]2CCCN2C1=O` [SEQ ID NO: 96] (Biotin-GGGSASRICPWNCKEL-OH; disulfide 9-13), the Kd on FMC63 IgG was 0.141 nM. Take “lipo-G2T8-CG (DNA GGTTTTTTTTCG; DNA, backbone and methylation of C not given here; lipid conjugate)”: in data set [1], the “percentage of intact micelles” value was 36%. `CC[C@H](C)[C@H](NC(=O)[C@H](CCCNC(=N)N)NC(=O)[C@H](CO)NC(=O)[C@H](C)NC(=O)[C@H](CO)NC(=O)CCCC[C@@H]1SC[C@@H]2NC(=O)N[C@@H]21)C(=O)N[C@H]1CSSC[C@@H](C(=O)N[C@@H](CCCCN)C(=O)N[C@@H](CCC(=O)O)C(=O)N[C@@H](CC(C)C)C(=O)O)NC(=O)[C@H](CC(N)=O)NC(=O)[C@H](Cc2c[nH]c3ccccc23)NC(=O)[C@@H]2CCCN2C1=O` [SEQ ID NO: 95] (Biotin-SASRICPWNCKEL-OH; disulfide 6-10): the Kd on FMC63 IgG stood at 0.147 nM.
